Values quoted from earlier work as cited in patent publication US20070119380A1, “Additive Composition for Feeding Aquaculture Animals and Feed Containing the Same” (priority 2003, published 2007).

Key:
[1] = in whitefish flesh/muscle, fresh/wet sample
mice = details: interperitoneal and oral administration

Row | Structure (SMILES) | minimal amount (flavor threshold value) to produce a recognizable sensation [1] [ng/g] | sub-lethal toxic effects (mice)
1 | Oc1c(Br)cc(Br)cc1Br [2,4,6-tribromophenol] | 10 | no sub-lethal toxic effects
2 | Oc1ccc(Br)cc1Br [2,4-dibromophenol] | 50 | –
3 | Oc1ccc(Br)cc1 [4-bromophenol] | 20 | –
4 | Oc1ccccc1Br [2-bromophenol] | 10 | no sub-lethal toxic effects
5 | Oc1c(Br)cccc1Br [2,6-dibromophenol] | 0.1 | –
